Laboratory results from US8183272B2, “Indanyl compounds” (Daiichi Sankyo Company, Limited, priority 2008, dated 2012).

How the values were obtained:
[1] = molecular target: T1, human calcium-sensing receptor (CaSR) (Homo sapiens, UniProt P41180); assay: Inhibitory activity on calcium-sensing receptor (CaSR) using intracellular calcium increase as an indicator (FLIPR, CHO/hCaSR); type: cell-based; conditions: CHO/hCaSR cells; intracellular Ca increase induced by CaCl2; test compound 1.05 to 10,000 nM
T1 construct: expressed in transfected cells; host or cells: CHO cells (CHO/hCaSR)
T1 sequence (P41180 20-1078): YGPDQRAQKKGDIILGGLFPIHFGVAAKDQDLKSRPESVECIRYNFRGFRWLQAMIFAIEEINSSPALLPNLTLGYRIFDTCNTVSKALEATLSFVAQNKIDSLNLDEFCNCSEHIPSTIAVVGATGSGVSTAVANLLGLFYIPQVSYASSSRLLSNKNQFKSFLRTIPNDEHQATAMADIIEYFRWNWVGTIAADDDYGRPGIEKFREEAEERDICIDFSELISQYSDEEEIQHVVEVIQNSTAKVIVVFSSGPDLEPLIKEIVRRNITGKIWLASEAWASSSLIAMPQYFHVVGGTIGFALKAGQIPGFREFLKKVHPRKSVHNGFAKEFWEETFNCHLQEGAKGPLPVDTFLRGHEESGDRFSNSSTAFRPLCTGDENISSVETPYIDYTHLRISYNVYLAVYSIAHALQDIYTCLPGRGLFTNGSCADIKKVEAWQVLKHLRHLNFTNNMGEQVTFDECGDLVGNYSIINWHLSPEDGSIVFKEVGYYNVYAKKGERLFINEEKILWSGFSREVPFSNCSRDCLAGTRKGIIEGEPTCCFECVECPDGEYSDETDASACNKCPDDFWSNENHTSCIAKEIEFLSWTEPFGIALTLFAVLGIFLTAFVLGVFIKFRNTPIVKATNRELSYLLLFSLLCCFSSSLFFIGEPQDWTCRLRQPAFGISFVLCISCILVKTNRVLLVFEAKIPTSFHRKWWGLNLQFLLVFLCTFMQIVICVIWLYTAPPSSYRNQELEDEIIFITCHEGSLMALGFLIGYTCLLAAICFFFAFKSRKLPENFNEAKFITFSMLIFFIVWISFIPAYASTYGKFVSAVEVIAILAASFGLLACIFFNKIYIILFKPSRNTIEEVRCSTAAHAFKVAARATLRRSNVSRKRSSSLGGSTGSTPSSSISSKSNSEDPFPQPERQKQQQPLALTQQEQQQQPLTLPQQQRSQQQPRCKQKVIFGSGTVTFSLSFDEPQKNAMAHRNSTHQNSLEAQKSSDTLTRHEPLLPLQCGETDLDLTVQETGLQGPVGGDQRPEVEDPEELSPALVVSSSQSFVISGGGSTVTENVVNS
Procedure: Evaluation of inhibitory activity on calcium-sensing receptor (CaSR) using intracellular calcium increase as an indicator
The preparation which is prepared by adding CHO/hCaSR to F12 medium (manufactured by Invitrogen) containing 10% fetal bovine serum to have 2×10^5 cells/mL was applied to a 384-well in an amount of 50 μL/well, and then incubated overnight in a CO2 incubator. The culture supernatant was completely removed, the assay buffer (20 mM HEPES, HBSS (Ca and Mg free) containing 2.5 mM probenecid, pH 7.4) containing Calcium 3 (manufactured by Molecular Devices), i.e., a fluorescent intracellular calcium indicator, was added thereto in an amount of 25 μL/well, and the mixture was maintained for 1 hour in a CO2 incubator. Meanwhile, Calcium 3 was prepared according to the protocol enclosed in FLIPR Calcium 3 Assay Kit (manufactured by Molecular Devices). After maintaining it for 1 hour, a solution in which the test compound is prepared to have 2.1 to 20,000 nM (final concentration of 1.05 to 10,000 nM) by an assay buffer was added thereto in an amount of 25 μL/well, and maintained for 15 minutes in a CO2 incubator. Then, the CaCl2 solution prepared to have […] by using the assay buffer was added in an amount of 25 μL/well, and the resulting intracellular Ca increase (i.e., fluorescence intensity) was measured over time using a fluorescence imaging plate reader (FLIPR, manufactured by Molecular Devices). From the data obtained, the difference between the fluorescence intensity before the addition of CaCl2 solution and the maximum fluorescence intensity after the addition of CaCl2 solution was calculated, and the 50% inhibition concentration (IC50) of the test compound was obtained.

[2] = system: PTH secretion; assay: Evaluation of PTH secretion promoting activity in rat (blood serum PTH, ELISA); type: in vivo; conditions: female F344 rat, oral 3 mg/5 mL/kg, Means ± S.D., n = 3; for Blood Serum PTH (1-84) Concentration, 0 minute: before administration
Procedure: Evaluation of PTH Secretion Promoting Activity in Rat
A 10 to 14-week old female F344 rat (Charles River Japan, Inc.) fasted overnight was anesthetized using ether, and blood serum before the administration was prepared by drawing blood from the jugular vein of the animal. Subsequently, the test compound was orally administered at a dose of 3 mg/5 mL/kg using a solvent (0.5% aqueous methyl cellulose solution containing 5% DMA). Blood was drawn from the jugular vein under ether anesthesia at 5, 15, 30, 60, 120, and 240 minutes after the administration of the test compound, and the blood serum was prepared. The blood serum PTH concentration was measured using rat Intact PTH ELISA kit (manufactured by Immutopics, Inc.).

IC50 [1] [nM]	SMILES	Blood Serum PTH (1-84) Concentration, After 5 minutes [2] [pg/mL]	Blood Serum PTH (1-84) Concentration, After 15 minutes [2] [pg/mL]	Blood Serum PTH (1-84) Concentration, After 30 minutes [2] [pg/mL]	Blood Serum PTH (1-84) Concentration, After 60 minutes [2] [pg/mL]	Blood Serum PTH (1-84) Concentration, After 120 minutes [2] [pg/mL]	Blood Serum PTH (1-84) Concentration, After 240 minutes [2] [pg/mL]	Blood Serum PTH (1-84) Concentration, 0 minute [2] [pg/mL]
≤ 2510	C[C@@H](OC[C@H](O)CNC1(CC2Cc3ccccc3C2)CC1)c1ccccc1CCC(=O)O [Example 14, 3-{2-[(1R)-1-{[(2R)-3-{[1-(2,3-Dihydro-1H-inden-2-ylmethyl)cyclopropyl]amino}-2-hydroxypropyl]oxy}ethyl]phenyl}propanoic acid]	211.6 ± 28.4	471.7 ± 112.8	146.1 ± 45.2	78.9 ± 5.0	81.8 ± 4.9	94.3 ± 15.7	62.8 ± 11.4
	Cc1cccc([C@@H](C)OC[C@H](O)CNC(C)(C)CC2Cc3ccccc3C2)c1CCC(=O)O [Example 4, 3-{2-[(1R)-1-{[(2R)-3-{[1-(2,3-Dihydro-1H-inden-2-yl)-2-methylpropan-2-yl]amino}-2-hydroxypropyl]oxy}ethyl]-6-methylphenyl}propanoic acid]	68.2 ± 6.0	489.1 ± 106.0	538.6 ± 155.1	117.0 ± 33.7	108.8 ± 27.4	91.9 ± 24.5	20.5 ± 6.6
